Measurements: patent US20210215714A1, “COMPLEMENT ALTERNATIVE PATHWAY-ASSOCIATED NEPHROPATHY BIOMARKERS” (Achillion Pharmaceuticals, Inc., priority 2018, published 2021)

System: C3b/iC3b
Experiment: Phase 2a study: % fragment C3
Type: in vivo, human
Details: 14-day treatment, patients A-F
Description: Systemic complement proteins were measured in serum and plasma including serum Ba, plasma Bb, serum C3, serum Factor D, serum C4, and % Fragment C3.
C3 levels in serum were measured using a quantitative sandwich enzyme immunoassay technique. A monoclonal antibody specific for human C3 was pre-coated onto a micro-assay plate. Standards and samples were pipetted into the wells and any C3 present was bound by the immobilized antibody. After washing away any unbound substances, an enzyme-linked polyclonal antibody specific for human C3 was added to the wells. Following a wash to remove any unbound antibody-enzyme reagent, a substrate solution was added to the wells and color develops in proportion to the amount of C3 bound in the initial step. The color development was stopped and the intensity of the color was measured. […] Patients E and F show similar results.

CC(=O)c1nn(CC(=O)N2C[C@H](F)C[C@H]2C(=O)Nc2cccc(Br)n2)c2ccc(-c3cnc(C)nc3)cc12 [Compound 1, (2S,4R)-1-(2-(3-acetyl-5-(2-methylpyrimidin-5-yl)-1H-indazol-1-yl)acetyl)-N-(6-bromopyridin-2-yl)-4-fluoropyrrolidine-2-carboxamide]
% fragment C3: reduced
